Earlier results in US6696082B2, “Enhanced liposomal thioretinaco ozonide compositions and liposomal carrier” (priority 2002, dated 2004).

Key:
malignant tumors = settings: in vivo; cited from earlier work
[1] = rats treated with parenteral homocysteine thiolactone; cited from earlier work
[2] = test system: cultured malignant and normal cells; settings: except at high concentrations; cited from earlier work
[3] = test system: human pancreatic adenocarcinomas; settings: intra-tumor administration, athymic mice; cited from earlier work

NC(=O)/C=C\C(=O)NC1CCSC1=O (centres unmarked) [N-maleamide homocysteine thiolactone amide]
growth of malignant tumors in animals (malignant tumors): suppress the growth of malignant tumors in animals

CC1=C(/C=C/C(C)=C/C=C/C(C)=C/C(=O)NC2CCSC2=O)C(C)(C)CCC1 (centres unmarked) [thioretinamide, N-homocysteine thiolactonyl retinamide]
antiatherogenic activity [1]: have antiatherogenic activity
growth of cultured cells [2]: decrease growth without degeneration or detachment of the cells

N-homocysteine thiolactonyl retinamido cobalamin [(NHTR)2Cbl]
antiatherogenic activity [1]: have antiatherogenic activity
growth of human pancreatic adenocarcinomas [3]: decreased the growth
growth of cultured cells [2]: decrease growth without degeneration or detachment of the cells

N-maleyl homocysteine thiolactone amide
growth of malignant tumors in animals (malignant tumors): suppress the growth of malignant tumors in animals

rhodium trichloride oxalyl homocysteine thiolactone amide
growth of malignant tumors in animals (malignant tumors): suppress the growth of malignant tumors in animals
